Several values for one entry are separate records, joined by “and”; a condition that tells them apart may be missing. Identical values can stand only once. Counter-ions that a name gives are not always drawn. Like-named read-outs stand apart in the source and are kept apart here.
Assays:
[1] = test system: formation of NO measured as NO2^− (nitrite); experiment: Inhibition of NO (nitrite) formation in rabbit articular chondrocytes stimulated with IL-1β; type: cell-based
Procedure: (§1) a) The inhibitory activity on the formation of NO measured as NO2^− (nitrite) and PGE2 was studied in vitro on culture media of rabbit articular chondrocytes stimulated with the cytokine IL-1β (1 ng/ml) for 48 hours. For the preparation of the chondrocytes, the method described by Berenbaum et al. [FEBS Letters 340, 51-55 (1994)] was followed. Briefly, fragments of cartilage removed aseptically from the articular heads of rabbit shoulder, hip and knee were finely ground and digested at 37° C. in hyaluronidase, trypsin and collagenase solutions, giving, after filtration through sterile gauze and centrifugation at 600×g and suitable dilution with 10% DMEM-FCS 10%, a concentration per well of about 1×10^5 cells. The cells were maintained under these conditions until confluent (about 15 days), the medium being replaced every 3 days. At this point, the test products dissolved in the medium were added to each sample and, after 20 minutes, 350 μl of IL-1β were added, to give a final concentration of 1 ng/ml. The stimulation lasted 48 hours at 37° C. (incubation in air/7% CO2). A nitrite assay was subsequently performed on the cell supernatant, as described by Green et al. [Anal. Biochem. 126, 131-138 (1982)], and of PGE2 by RIA assay. The results obtained are shown in Table 3, in which is given, for a number of the compounds that are the subject of the invention and that are already illustrated in Table 1, the IC50, i.e. the concentration (micromolar) of antagonist capable of inhibiting the formation of nitrites and PGE2 by 50% relative to the control group, i.e. relative to the cells stimulated with IL-1β but without addition of antagonists.

[2] = test system: PGE2; experiment: Inhibition of PGE2 formation in rabbit articular chondrocytes stimulated with IL-1β (RIA); type: cell-based; conditions: for IC50: Oryctolagus cuniculus, Chondrocyte
Procedure: as §1

[3] = test system: rat paw injected with Zymosan; experiment: Zymosan-induced paw oedema in rats; type: in vivo; conditions: for Anti-inflammatory activity (oedema) ED30 / Mean (Oedema + Analgesia) ED30: os, 0-6 hours; for Anti-inflammatory activity (oedema) ED30: dose reducing volume increase by 30%; for Mean (Oedema + Analgesia) ED30: mean of oedema and analgesia ED30; for anti-inflammatory and anti-hyperalgesic action (in words): Zymosan, administered orally, L-NAME up to maximum dose 50 mg/kg
Procedure: (§2) This is a phlogogenic agent, consisting of a protein-glycoside complex, extracted from the cell walls of raw yeast, which is capable of inducing rapid degranulation of neutrophils, an increase in the production of TNF-α, interleukin-1 (IL-1), IL-6 and stimulation of NO generation by monocytes and macrophages (ZymosaN:Merck Index XIII ed. No. 10250, p. 1818).
(§3) The experiments consisted of sub-plantar intradermal injection into the animal of 4 mg of Zymosan suspended in 100 μl of sterile physiological solution, while the test compounds were administered orally 30 minutes before injection of the phlogogenic agent.
(§4) Measurement of the inflammation of the injected paw and of the consequent hyperalgesic effects was performed 2, 4 and 6 hours after the administration of Zymosan. The oedema was evaluated as the increase in volume of the injected paw within the period 0-6 hours, relative to the initial value of the volume of the paw, i.e. before the injection of Zymosan (basal value).
The measurements of the variation of the volume of the paw were recorded using a hydroplethysmometer (Mod. 7150, Basile, Italy), which consists of two plastic cuvettes containing a surfactant liquid, the larger one being used for immersion of the paw, connected to the smaller one which contains a transducer capable of recording small displacements of volume of the liquid used for the measurement. The paw is immersed in the cuvettes up to the tibiotarsal joint. The volume of liquid displaced by the paw indicates the magnitude of the inflammation.
For each test compound, at least three doses were used (generally 10, 20 and 40 mg/kg) with at least five animals per group×dose, so as to be able to calculate an ED30, i.e. the dose in mg/kg capable of reducing by 30% the Zymosan-induced volume increase, relative to the group of control animals, i.e. animals injected only with the phlogogenic agent and treated orally with distilled water.

[4] = test system: rat paw injected with Zymosan; experiment: Zymosan-induced mechanical hyperalgesia in rats (Randall-Selitto); type: in vivo; conditions: os, 0-6 hours, dose increasing pain threshold by 30%
Procedure: as §2, §3, §4
The hyperalgesia induced by the intradermal administration of Zymosan was evaluated on these animals and at the same times described previously for the evaluation of the oedema, using the Randall-Selitto method [Arch. Int. Pharmacodyn. 111, 409 (1957)].
When the animal makes a noise following the pain stimulus, the operator blocks the punch and records the force, expressed in grams, which was applied to the paw (the cut-off value is 500 grams). The difference in the meal chanical pain threshold between the basal value (generally about 230-250 grams) and that recorded at the indicated times after injection of the phlogogenic agent, generally 130-140 g for the control animals 6 hours after injection of the phlogogenic agent, is defined as mechanical hyperalgesia. In this case also, an ED30 was calculated, i.e. the dose in mg/kg capable of increasing the pain threshold by 30% (meal chanical hyperalgesia) in the animals treated with the test compounds relative to the group of control animals.

[5] = test system: rabbit articular chondrocytes; experiment: Cellular toxicity on rabbit articular chondrocytes; type: cell-based; conditions: noted beside IN in Table 3
Procedure: as §1

[6] = test system: IL-6; experiment: Inhibition of IL-6 expression (mRNA) in SW 1353 cells stimulated with IL-1β, Real Time PCR; type: cell-based; conditions: Homo sapiens, SW1353; SW 1353 cells stimulated for 6 hours with IL-1β
Description: In practice, the RNA extracted from the cells was back-transcribed to c-DNA by means of a thermocycler (BioRad—“iCycler”) and subsequently amplified via the Real Time PCR technique using a probe and a primer specific for IL-6, from the company Applied Biosystem, and the thermocycler 7000 Sequence Detection System (Applied Biosystem).
The capacity […] may be considered as large, since the increase in the expression of this cytokine is associated with the physiopathology of various human diseases, for instance Crohn's disease, as described previously.

[7] = rabbit articular chondrocytes stimulated with IL-1β
[8] = rabbit articular chondrocytes, IL-1β 1 ng/ml, 48 hours, RIA, read-out: Inhibition % IC50 PGE2
[9] = Oryctolagus cuniculus, Chondrocyte, rabbit articular chondrocytes stimulated with IL-1β, read-out: IC50, production of NO
[10] = Oryctolagus cuniculus, Chondrocyte, rabbit articular chondrocytes, IL-1β 1 ng/ml, 48 hours, nitrite in supernatant, read-out: Inhibition % IC50 NO
[11] = rabbit articular chondrocytes stimulated with IL-1β, read-out: IC50, formation of PGE2

Row | SMILES | IC50 [2, 8] [µM] | Anti-inflammatory activity (oedema) ED30 [3] | Mean (Oedema + Analgesia) ED30 [3] | Analgesic activity (mechanical anti-hyperalgesia) ED30 [4] | IC50 [1, 10] [µM] | anti-inflammatory and anti-hyperalgesic action (in words) [3] | melting point | IC50 [6] [µM] | further results
1 | Cc1ccc(-c2cc(C(F)(F)F)nn2-c2ccc(S(N)(=O)=O)cc2)cc1 [Celecoxib, reference compound] | 0.02 | 79.4 mg/kg | 74.3 mg/kg | 69.2 mg/kg | – | – | – | – | inhibiting the production of NO (in words) [1, 7]: entirely inactive
2 | CC(=N)Nc1ccc2nc(-c3ccccc3)sc2c1 [Compound 1, N-(2-phenylbenzothiazol-6-yl)acetamidine] | 2.4 | 12.6 mg/kg | 9.7 mg/kg | 6.7 mg/kg | 6.5 | powerful anti-inflammatory and anti-hyperalgesic action | 161 to 162.1 °C | – | IC50 [1, 9]: 3 to 8 µM
3 | CC(=N)Nc1ccc2nc(-c3ccc(Cl)cc3)sc2c1 [Compound 3, N-[2-(4-chlorophenyl)benzothiazol-6-yl]acetamidine] | 1.9 | – | – | – | – | – | 212.2 to 213.5 °C | – | Tox = cellular toxicity (concentration) [5]: 30 µM
4 | CC(=N)Nc1ccc2[nH]c(-c3ccccc3)cc2c1 [Compound 5, N-(2-phenyl-1H-indol-5-yl)acetamidine] | 1.2 | 39.4 mg/kg | 29.4 mg/kg | 19.3 mg/kg | 3.4 | powerful anti-inflammatory and anti-hyperalgesic action | 217.7 to 220 °C and 218 to 220 °C | 1.5 to 6 | IC50 [1, 9]: 3 to 8 µM
5 | CC(=N)Nc1ccc2nc(-c3ccccc3)ccc2c1 [Compound 8, N-(2-phenylquinol-6-yl)acetamidine] | 2.3 | 19.8 mg/kg | 15.8 mg/kg | 11.8 mg/kg | 47.9 | powerful anti-inflammatory and anti-hyperalgesic action | 143 to 144.4 °C | 1.5 to 6 | –
6 | CC(=N)Nc1ccc2sc(-c3ccccc3)nc2c1 [Compound 9, N-(2-phenylbenzothiazol-5-yl)acetamidine] | 4.2 | 33.9 mg/kg | 32.6 mg/kg | 31.3 mg/kg | 18 | powerful anti-inflammatory and anti-hyperalgesic action | 177 to 178 °C | 1.5 to 6 | –
7 | CC(=N)Nc1ccc2sc(-c3ccccc3C)nc2c1 [Compound 18, N-[2-(2-methylphenyl)benzothiazol-5-yl]acetamidine] | 1.2 | – | – | – | 6.2 | – | 188.4 to 189.8 °C | 1.5 to 6 | IC50 [1, 9]: 3 to 8 µM
8 | CC(=N)Nc1ccc2nc(-c3ccccc3)ncc2c1 [Compound 27, N-(2-phenylquinazolin-6-yl)acetamidine dihydrochloride] | 9 | 24.6 mg/kg | 18.8 mg/kg | 13.0 mg/kg | 67.5 | powerful anti-inflammatory and anti-hyperalgesic action | – | 1.5 to 6 | –
9 | CC(=N)Nc1ccc2oc(-c3ccccc3)cc2c1 [Compound 28, N-(2-phenylbenzofuran-5-yl)acetamidine] | 0.5 | 20.8 mg/kg | 22.6 mg/kg | 24.4 mg/kg | 7.8 | powerful anti-inflammatory and anti-hyperalgesic action | 204.8 to 205.9 °C | 1.5 to 6 | IC50 [1, 9]: 3 to 8 µM; IC50 [2, 11]: 0.3 to 0.8 µM
10 | CC(=N)Nc1ccc2oc(-c3ccccc3)nc2c1 [Compound 29, N-(2-phenylbenzoxazol-5-yl)acetamidine] | 3.2 | – | – | – | 28.6 | – | 171.2 to 173.4 °C | 1.5 to 6 | –
11 | CC(=N)Nc1ccc2[nH]c(-c3ccc(Cl)c(Cl)c3)nc2c1 [Compound 35, N-[2-(3,4-dichlorophenyl)benzimidazol-5-yl]acetamidine] | 0.4 | – | – | – | – | – | 207.4 to 209 °C | – | inhibiting the production of NO (in words) [1, 7]: little activity; IC50 [2, 11]: 0.3 to 0.8 µM; IC50, formation of PGE2 [2, 7]: sub-micromolar
12 | COc1ccccc1-c1nc2cc(NC(C)=N)ccc2[nH]1 [Compound 37] | 2.8 | – | – | – | 32.1 | – | 190.5 to 192.8 °C | – | –
13 | CC(=N)Nc1ccc2[nH]c(-c3ccccc3C)nc2c1 [Compound 39, N-[2-(2-methylphenyl)benzimidazol-5-yl]acetamidine] | 9.9 | – | – | – | 199 | – | 154 to 158 °C | – | –
14 | CC(=N)Nc1ccc2nc(-c3ccccc3)oc2c1 [Compound 42, N-(2-phenylbenzoxazol-6-yl)acetamidine] | 5.1 | – | – | – | 42.9 | – | 176.3 to 177.8 °C | – | –
15 | COC(=O)[C@@H](N)CCCNC(=N)N[N+](=O)[O-] [L-NAME, N^G-nitro-L-arginine methyl ester, reference compound] | – | IN (the compound L-NAME was entirely inactive up to the maximum dose administered (50 mg/kg)) | IN (the compound L-NAME was entirely inactive up to the maximum dose administered (50 mg/kg)) | IN (the compound L-NAME was entirely inactive up to the maximum dose administered (50 mg/kg)) | – | – | – | – | activity on NO production, fold less powerful than the best compounds of the invention [1, 7]: about 10 fold; IC50 ([1]; rabbit articular chondrocytes stimulated with IL-1β, read-out: IC50, production of NO): 71 µM; Inhibition % IC50 PGE2 ([2]; rabbit articular chondrocytes, IL-1β 1 ng/ml, 48 hours, RIA): IN (IN = <25% inhibitory activity at 30 × 10^−6M); anti-inflammatory and anti-hyperalgesic action (in words) ([3]; 50 mg/kg): inactive

Reference: patent US20050197331A1, “Novel anti-inflammatory and analgesic heterocyclic amidines that inhibit nitrogen oxide (NO) production” (ROTTAPHARM SPA, priority 2004, published 2005)
